pEC50: −log10 of the molar value. Numbered stars: 1 amine (or outer) side, 2 acyl side, 3 side chain; on linkers, the order of the positions; unused ones are H or OH. Bridge positions count the residues as written; N and C are the ends. Square brackets hold non-standard residues; d marks the D form. Peptide text beside a SMILES is read from it. * marks the point of attachment. Pro(trans-4-Ph) = O=C(O)[C@@H]1C[C@@H](c2ccccc2)CN1; C20 diacid = O=C(O)CCCCCCCCCCCCCCCCCCC(=O)*; γGlu = O=C(O)[C@H](CCC(=O)[*:2])N[*:1]; Hyp = O=C(O)[C@@H]1C[C@@H](O)CN1; NMeI = CC[C@H](C)[C@H](NC)C(=O)O; Sar = CNCC(=O)O
Key:
[1] = target: T1, human calcitonin receptor (hCTR2) (Homo sapiens, UniProt P30988); assay: hCTR2 assay: induction of cAMP (AlphaScreen cAMP Assay kit) in COS7 cells expressing hCTR2; format: cell-based; conditions: cAMP induction in COS7 cells expressing hCTR2; average of a minimum of 3 determinations; read-out: hCTR2 EC50
T1 construct: expressed in transfected cells
T1 sequence (P30988 25-474): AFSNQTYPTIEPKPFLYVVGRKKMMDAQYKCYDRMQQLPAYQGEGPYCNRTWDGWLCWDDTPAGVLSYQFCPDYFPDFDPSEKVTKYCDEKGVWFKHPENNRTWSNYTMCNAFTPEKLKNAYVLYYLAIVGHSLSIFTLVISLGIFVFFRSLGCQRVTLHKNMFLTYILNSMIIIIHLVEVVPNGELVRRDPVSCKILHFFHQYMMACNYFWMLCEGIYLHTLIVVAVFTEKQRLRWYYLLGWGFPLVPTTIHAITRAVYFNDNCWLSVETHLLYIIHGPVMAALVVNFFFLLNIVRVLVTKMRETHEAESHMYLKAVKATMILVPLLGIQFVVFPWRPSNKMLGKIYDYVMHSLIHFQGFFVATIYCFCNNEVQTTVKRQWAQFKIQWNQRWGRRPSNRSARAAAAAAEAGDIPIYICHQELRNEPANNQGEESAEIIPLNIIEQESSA
Procedure, shortened: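 COS7 stable hCTR2 clone (RAMP-free); peptide dose-response 15 min 37° C in Tyrode pH 7.4 + 100 µM IBMX + 0.1% casein; lysis 10 min RT; AlphaScreen cAMP; 4PL fit.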

[2] = target: T2, human amylin receptor 3 (hAMYR3) consisting of hCTR2 co-expressed with human Receptor Activity Modifying Protein 3 (hRAMP3) (Homo sapiens, UniProt O60896+P30988); assay: hAMYR3 assay: induction of cAMP (AlphaScreen cAMP Assay kit) in COS7 cells expressing hAMYR3; format: cell-based; conditions: cAMP induction in COS7 cells expressing hAMYR3; average of a minimum of 3 determinations; read-out: hAMY R3 EC50
T2 construct: expressed in transfected cells
T2 sequence (P30988 25-474): T1 sequence (P30988 25-474)
T2 sequence (O60896 24-148 partner): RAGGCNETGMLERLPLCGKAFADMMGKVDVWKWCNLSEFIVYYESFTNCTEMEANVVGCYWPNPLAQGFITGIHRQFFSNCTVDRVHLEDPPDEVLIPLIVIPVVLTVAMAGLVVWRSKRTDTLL
From the text: The cell line COS7, originating from African Green Monkey kidney fibroblast cells, was used for establishment of the stable cell lines described below. The COS7 cellular background was used due to it being RAMP naive, and as such it provides the best available system for testing of the monomeric hCTR and different heterodimeric amylin receptor subtypes functionally generated by introduction of the individual RAMPs.
A cell line expressing the human amylin receptor 3 (hAMYR3) was generated in the COS7 cellular background as stable clones. In brief, hCTR2 (GI:4502547) and hRAMP3 (GI:118572586) were amplified by PCR using primers encoding terminal restriction sites for subcloning. The 5'-end primers additionally encoded a near Kozak consensus sequence to ensure efficient translation. The fidelity of the DNA encoding the receptor was confirmed by DNA sequencing. The PCR products encoding the receptor were subcloned into a proprietary tri-cistronic mammalian expression vector with RAMP3, hCTR2 and neomycin (G418) resistance marker. The mammalian expression vector encoding the receptor was transfected into COS7 cells by a standard liposome transfection method. 48 hours post-transfection, cells were seeded for limited dilution cloning and selected with 1 mg/ml G418 in the culture medium. After 3 weeks, surviving colonies of hAMY3R-expressing cells were picked, propagated and tested in the amylin efficacy assay as described in Example 3 below. The functional generation of the amylin receptor phenotype was verified in the efficacy assay by a left-shifted efficacy response to amylin relative to monomeric calcitonin receptor, and one hAMYR3-expressing clone was chosen for compound profiling.
In vitro activity of test peptides at the hCTR2 and hAMYR3 receptors was assessed by measuring the induction of cAMP following stimulation of the receptor by pramlintide or peptides of the invention using the AlphaScreen® cAMP Assay kit from Perkin-Elmer.
Briefly, COS7 cells expressing hCTR2 (see Example 2, above) were seeded at 30-40,000 cells per well in 96-well microtiter plates coated with 0.01 % poly-L-lysine, and grown for 1 day in culture in 100 µl growth medium [DMEM, 10% FCS, Penicillin (100 IU/ml), Streptomycin (100 µg/ml)]. On the day of analysis, growth medium was removed and the cells were washed once with 200 µl Tyrode buffer [Tyrode's Salts (9.6 g/l), 10 mM HEPES, pH 7.4]. Cells were incubated in 100 µl Tyrode buffer containing increasing concentrations of test peptides, 100 µM IBMX and 0.1% casein for 15 min at 37° C. The reaction was stopped by carefully decanting off the compound/buffer medium and replacing it with lysis/detection buffer (80 µl 0.1 % w/v BSA, 5 mM HEPES, 0.3 % v/v Tween-20 in deionized water). After incubation at room temperature for 10 min., the cAMP content of the resulting cell lysate was estimated according to the AlphaScreen® cAMP Assay manufacturer's instructions. EC50 values and relative efficacy values (in %) compared to reference peptide (Pramlintide) were estimated by computer-aided curve fitting using the 4-parameter logistic (4PL) non-linear model.
The in vitro activity results (expressed as EC50 values) for peptides of the invention and for Pramlintide (reference peptide) are summarized in Table 2, below.

Row | Compound | pEC50 [1] | pEC50 [2]
1 | CC[C@H](C)[C@@H](C(=O)N[C@@H](CC(C)C)C(=O)N[C@@H](CO)C(=O)N[C@@H](CO)C(=O)N[C@H](C(=O)N[C@@H](CCC(=O)O)C(=O)N[C@H](C(=O)NCC(=O)N[C@@H](CO)C(=O)N[C@@H](CCC(=O)O)C(=O)N[C@H](C(=O)N1C[C@H](O)C[C@H]1C(N)=O)[C@@H](C)O)C(C)C)[C@@H](C)O)N(C)C(=O)[C@H](C)NC(=O)CN(C)C(=O)[C@H](Cc1ccccc1)NC(=O)[C@H](CO)NC(=O)[C@H](CO)NC(=O)[C@H](CO)NC(=O)[C@H](CO)NC(=O)[C@H](CCCNC(=N)N)NC(=O)[C@H](Cc1c[nH]cn1)NC(=O)[C@H](CC(C)C)NC(=O)[C@H](Cc1ccccc1)NC(=O)[C@H](CCC(=O)O)NC(=O)[C@H](C)NC(=O)[C@H](CC(C)C)NC(=O)[C@H](CCCNC(=N)N)NC(=O)[C@H](CCC(=O)O)NC(=O)[C@@H](NC(=O)[C@H](C)NC(=O)[C@@H]1CSSC[C@H](NC(=O)[C@H](CCCNC(=N)N)NC(=O)CC[C@H](NC(=O)CCCCCCCCCCCCCCCCCCC(=O)O)C(=O)O)C(=O)N[C@@H](CCC(=O)O)C(=O)N[C@@H]([C@@H](C)O)C(=O)N[C@@H](C)C(=O)N[C@@H]([C@@H](C)O)C(=O)N1)[C@@H](C)O [Compound 170, [19CD]-isoGlu-RC()ETATC()ATERLAEFLHRSSSSF-Gly(Me)-A-Ile(Me)-LSSTEVGSET-Hyp-NH2] ({C20 diacid-γGlu}-RCETATCATERLAEFLHRSSSSF[Sar]A[NMeI]LSSTEVGSET[Hyp]-NH2; disulfide 2-7) | 9.19 | 9.24
2 | CC[C@H](C)[C@@H](C(=O)N[C@@H](CC(C)C)C(=O)N[C@@H](CO)C(=O)N[C@@H](CO)C(=O)N[C@H](C(=O)N[C@@H](CC(N)=O)C(=O)N[C@H](C(=O)NCC(=O)N[C@@H](CO)C(=O)N[C@@H](CC(N)=O)C(=O)N[C@H](C(=O)N1C[C@H](c2ccccc2)C[C@H]1C(N)=O)[C@@H](C)O)C(C)C)[C@@H](C)O)N(C)C(=O)CN(C)C(=O)[C@H](Cc1ccccc1)NC(=O)[C@H](CC(N)=O)NC(=O)[C@H](CC(N)=O)NC(=O)[C@H](CO)NC(=O)[C@H](CO)NC(=O)[C@H](CCCNC(=N)N)NC(=O)[C@H](Cc1c[nH]cn1)NC(=O)[C@H](CC(C)C)NC(=O)[C@H](Cc1ccccc1)NC(=O)[C@H](CCC(=O)O)NC(=O)[C@H](C)NC(=O)[C@H](CC(C)C)NC(=O)[C@H](CCCNC(=N)N)NC(=O)[C@H](CCC(N)=O)NC(=O)[C@@H](NC(=O)[C@H](C)NC(=O)[C@@H]1CSSC[C@H](NC(=O)[C@H](CCCNC(=N)N)NC(=O)CC[C@H](NC(=O)CCCCCCCCCCCCCCCCCCC(=O)O)C(=O)O)C(=O)N[C@@H](CC(N)=O)C(=O)N[C@@H]([C@@H](C)O)C(=O)N[C@@H](C)C(=O)N[C@@H]([C@@H](C)O)C(=O)N1)[C@@H](C)O [Compound 113, [19CD]-isoGlu-RC()NTATC()ATQRLAEFLHRSSNNF-Gly(Me)-Ile(Me)-LSSTNVGSNT-Php-NH2] ({C20 diacid-γGlu}-RCNTATCATQRLAEFLHRSSNNF[Sar][NMeI]LSSTNVGSNT[Pro(trans-4-Ph)]-NH2; disulfide 2-7) | 9.77 | 9.72
3 | CC[C@H](C)[C@@H](C(=O)N[C@@H](CC(C)C)C(=O)N[C@@H](CO)C(=O)N[C@@H](CO)C(=O)N[C@H](C(=O)N[C@@H](CCC(=O)O)C(=O)N[C@H](C(=O)NCC(=O)N[C@@H](CO)C(=O)N[C@@H](CCC(=O)O)C(=O)N[C@H](C(=O)N1C[C@H](O)C[C@H]1C(N)=O)[C@@H](C)O)C(C)C)[C@@H](C)O)N(C)C(=O)[C@H](C)NC(=O)CN(C)C(=O)[C@H](Cc1ccccc1)NC(=O)[C@H](CO)NC(=O)[C@H](CO)NC(=O)[C@H](CCCNC(=N)N)NC(=O)[C@H](Cc1c[nH]cn1)NC(=O)[C@H](CC(C)C)NC(=O)[C@H](Cc1ccccc1)NC(=O)[C@H](CCC(=O)O)NC(=O)[C@H](C)NC(=O)[C@H](CC(C)C)NC(=O)[C@H](CCCNC(=N)N)NC(=O)[C@H](CCC(=O)O)NC(=O)[C@@H](NC(=O)[C@H](C)NC(=O)[C@@H]1CSSC[C@H](NC(=O)[C@H](Cc2c[nH]c3ccccc23)NC(=O)CC[C@H](NC(=O)CCCCCCCCCCCCCCCCCCC(=O)O)C(=O)O)C(=O)NCC(=O)N[C@@H]([C@@H](C)O)C(=O)N[C@@H](C)C(=O)N[C@@H]([C@@H](C)O)C(=O)N1)[C@@H](C)O [Compound 164, [19CD]-isoGlu-WC()GTATC()ATERLAEFLHRSSF-Gly(Me)-A-Ile(Me)-LSSTEVGSET-Hyp-NH2] ({C20 diacid-γGlu}-WCGTATCATERLAEFLHRSSF[Sar]A[NMeI]LSSTEVGSET[Hyp]-NH2; disulfide 2-7) | 10.00 | 9.57
4 | CC[C@H](C)[C@@H](C(=O)N[C@@H](CC(C)C)C(=O)N[C@@H](CO)C(=O)N[C@@H](CO)C(=O)N[C@H](C(=O)N[C@@H](CCC(=O)O)C(=O)N[C@H](C(=O)NCC(=O)N[C@@H](CO)C(=O)N[C@@H](CCC(=O)O)C(=O)N[C@H](C(=O)N1C[C@H](O)C[C@H]1C(N)=O)[C@@H](C)O)C(C)C)[C@@H](C)O)N(C)C(=O)CN(C)C(=O)[C@H](Cc1ccccc1)NC(=O)[C@H](CO)NC(=O)[C@H](CO)NC(=O)[C@H](CO)NC(=O)[C@H](CO)NC(=O)[C@H](CCCNC(=N)N)NC(=O)[C@H](Cc1c[nH]cn1)NC(=O)[C@H](CC(C)C)NC(=O)[C@H](Cc1ccccc1)NC(=O)[C@H](CCC(=O)O)NC(=O)[C@H](C)NC(=O)[C@H](CC(C)C)NC(=O)[C@H](CCCNC(=N)N)NC(=O)[C@H](CCC(=O)O)NC(=O)[C@@H](NC(=O)[C@H](C)NC(=O)[C@@H]1CSSC[C@H](NC(=O)[C@H](CCCNC(=N)N)NC(=O)CC[C@H](NC(=O)CCCCCCCCCCCCCCCCCCC(=O)O)C(=O)O)C(=O)N[C@@H](CCC(=O)O)C(=O)N[C@@H]([C@@H](C)O)C(=O)N[C@@H](C)C(=O)N[C@@H]([C@@H](C)O)C(=O)N1)[C@@H](C)O [Compound 171, [19CD]-isoGlu-RC()ETATC()ATERLAEFLHRSSSSF-Gly(Me)-Ile(Me)-LSSTEVGSET-Hyp-NH2] ({C20 diacid-γGlu}-RCETATCATERLAEFLHRSSSSF[Sar][NMeI]LSSTEVGSET[Hyp]-NH2; disulfide 2-7) | 9.08 | 9.27

— patent publication EP3046573B1, “AMYLIN ANALOGUES” (Zealand Pharma A/S, priority 2013, dated 2015)
